This is an account of results in BindingDB's records for doi:10.7270/Q2DF6PMF (Nmmlsc, 2007).

Counter-ions that a name gives are not always drawn.

The first assay addresses T1, N-formyl peptide receptor 2 (Homo sapiens, UniProt P25090).
T1 sequence (P25090 whole entry): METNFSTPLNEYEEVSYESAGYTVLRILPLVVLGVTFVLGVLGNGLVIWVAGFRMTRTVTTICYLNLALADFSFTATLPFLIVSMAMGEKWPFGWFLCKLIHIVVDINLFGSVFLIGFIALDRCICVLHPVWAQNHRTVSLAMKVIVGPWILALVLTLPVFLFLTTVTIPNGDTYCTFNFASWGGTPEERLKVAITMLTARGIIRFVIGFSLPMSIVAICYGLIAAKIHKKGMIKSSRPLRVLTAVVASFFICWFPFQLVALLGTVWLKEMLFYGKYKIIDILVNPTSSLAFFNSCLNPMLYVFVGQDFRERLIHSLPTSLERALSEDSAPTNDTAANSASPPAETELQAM
The assay is described as follows: concentration-dependent FPRL1 ligand displacement – cell-based, FPR counter-screen, fluorescent ligand, dose response (AID 520).
Conditions: not given
Molecule `N[C@@H](Cc1ccc(O)c(I)c1)C(=O)O` registered an IC50 of over 66.7 µM. As for `Cc1cc(N2C(=O)C(=O)C(C(=O)c3ccc(F)cc3)C2c2cccc(Br)c2)no1` (stereo not given) [(4E)-5-(3-bromophenyl)-4-[(4-fluorophenyl)-hydroxy-methylene]-1-(5-methylisoxazol-3-yl)pyrrolidine-2,3-quinone], the IC50 was over 66.7 µM and the Ki is over 40.3 µM. `CCOC(=O)N1CCC(NC(=O)c2cc(C(=O)Nc3ccc(OC)c(OC)c3)ccc2CO)CC1` [4-[[5-[(3,4-dimethoxyphenyl)carbamoyl]-2-methylol-benzoyl]amino]piperidine-1-carboxylic acid ethyl ester] showed a half-inhibitory concentration (IC50) of over 66.7 µM. The same measure, in the same setting: for `CCOC(=O)CSc1nnc(CNC(=O)c2cc(OCC)c(OCC)c(OCC)c2)n1C` [2-[[4-methyl-5-[[(3,4,5-triethoxybenzoyl)amino]methyl]-1,2,4-triazol-3-yl]thio]acetic acid ethyl ester] the value was 11.2 µM. Regarding `COc1ccc(NC(=O)C2C3CCC(C3)C2C(=O)O)cc1OC` (stereo not given) [MLS000061524], the IC50 was over 66.7 µM. The molecule `COc1cccc2c1C(=O)c1c(O)c3c(c(O)c1C2=O)C[C@@](O)(C(C)=O)C[C@@H]3O[C@H]1C[C@H](N)[C@H](O)[C@H](C)O1` [(7S,9S)-9-acetyl-7-[(2R,4S,5S,6S)-4-amino-5-hydroxy-6-methyloxan-2-yl]oxy-6,9,11-trihydroxy-4-methoxy-8,10-dihydro-7H-tetracene-5,12-dione;hydrochloride] returned an IC50 of 25.1 µM.

On to `C[N+]1(C)[C@@H]2CC(OC(=O)[C@H](CO)c3ccccc3)C[C@H]1[C@@H]1O[C@@H]12` (stereo not given in full) [SCOPOLAMINE METHYL NITRATE], for which the IC50 was over 66.7 µM.

For `CCN(C(=O)Cc1c(C(=O)O)[nH]c2ccccc12)c1cc(OC)ccc1OC`, the half-inhibitory concentration (IC50) is over 66.7 µM.

`COC(=O)c1[nH]c(C)c(C(=O)C2C(=O)C(=O)N(CCCN3CCOCC3)C2c2ccccn2)c1C` (stereo not given) [methyl 4-{[4-hydroxy-1-[3-(4-morpholinyl)propyl]-5-oxo-2-(2-pyridinyl)-2,5-dihydro-1H-pyrrol-3-yl]carbonyl}-3,5-dimethyl-1H-pyrrole-2-carboxylate] showed a 50% inhibitory concentration (IC50) of over 66.7 µM and a Ki of over 40.3 µM. The molecule `Cc1ccc(C(=O)C2C(=O)C(=O)N(c3cc(C)on3)C2c2cccc(Br)c2)cc1` (stereo not given) [(4E)-5-(3-bromophenyl)-1-(5-methyl-1,2-oxazol-3-yl)-4-[(4-methylphenyl)-oxidanyl-methylidene]pyrrolidine-2,3-dione] registered an IC50 of over 66.7 µM and an inhibitory constant (Ki) of over 40.3 µM. Take `COc1ccccc1Oc1c(C)oc2c(CN(C)C)c(O)ccc2c1=O` [8-Dimethylaminomethyl-7-hydroxy-3-(2-methoxy-phenoxy)-2-methyl-chromen-4-one]: the IC50 was over 66.7 µM. `O=C(Nc1nnc(-c2ccccc2Cl)o1)c1ccc(S(=O)(=O)N2CCCCCC2)cc1` [4-(1-azepanylsulfonyl)-N-[5-(2-chlorophenyl)-1,3,4-oxadiazol-2-yl]benzamide] displayed an IC50 of over 66.7 µM.

In the case of `CCCCNC(=O)c1sc(=S)n2c1[nH]c(=O)c1ccccc12` [N-butyl-5-oxo-1-thioxo-4,5-dihydro[1,3]thiazolo[3,4-a]quinazoline-3-carboxamide], the IC50 is over 66.7 µM. For the molecule `Cc1ccc(F)c(NC(=O)C2CCCCC2C(=O)O)c1` (stereo not given) [2-[(2-fluoranyl-5-methyl-phenyl)carbamoyl]cyclohexane-1-carboxylic acid], the IC50 is over 66.7 µM. In turn, `Cc1nn(-c2nc3ccccc3s2)c(C)c1Oc1ccccc1O` [2-[1-(1,3-benzothiazol-2-yl)-3,5-dimethyl-pyrazol-4-yl]oxyphenol] yielded a 50% inhibitory concentration (IC50) of over 66.7 µM.

`O=C(NCCN1CCOCC1)NC1(C(F)(F)F)Oc2ccc(Cl)cc2O1` (stereo not given) registered a 50% inhibitory concentration (IC50) of over 66.7 µM.

Molecule `CCSc1nnc(NC(=O)CSc2nnc(Cc3cccn3C)n2CCc2ccccc2)s1` [MLS000092939] came in with a half-inhibitory concentration (IC50) of over 66.7 µM. Consider `Cc1ccc(C2C(C(=O)c3sc(C)nc3C)C(=O)C(=O)N2CCN2CCOCC2)o1` (stereo not given) [3-(2,4-dimethyl-1,3-thiazole-5-carbonyl)-4-hydroxy-2-(5-methylfuran-2-yl)-1-(2-morpholin-4-ylethyl)-2H-pyrrol-5-one], for which the IC50 is over 66.7 µM and the Ki is over 40.3 µM. Molecule `CCn1cc(C(=O)NC2CCC(C)CC2)c(=O)c2cc(S(=O)(=O)N3CCCCC3)ccc21` (stereo not given) displayed an IC50 of over 66.7 µM. As to `COCCCN1C(=O)C(=O)C(C(=O)c2ccco2)C1c1ccc(Br)cc1` (stereo not given) [2-(4-bromophenyl)-3-(furan-2-carbonyl)-4-hydroxy-1-(3-methoxypropyl)-2H-pyrrol-5-one], the IC50 is over 66.7 µM and the Ki was over 40.3 µM. Regarding `COc1ccc(-c2nnc(Nc3nc4c(OC)cccc4s3)o2)cc1` [MLS000045458], the half-maximal inhibitory concentration (IC50) is over 66.7 µM. `CCC(CC)C(=O)Nc1c2cnn(-c3ccccc3)c2nc(=O)n1-c1ccccc1` [2-ethyl-N-(6-keto-1,5-diphenyl-pyrazolo[3,4-d]pyrimidin-4-yl)butyramide] came in with an IC50 of over 66.7 µM. For `Cc1ccc(C2c3c([nH]c(=S)[nH]c3=O)N=C3CC(C)(C)CC(=O)C32)cc1` (stereo not given) [8,8-dimethyl-5-(4-methylphenyl)-2-sulfanylidene-5,7,9,10-tetrahydro-1H-pyrimido[4,5-b]quinoline-4,6-dione], the concentration for half-maximal inhibition (IC50) is over 66.7 µM and the Ki is over 40.3 µM. `CC(C)OC(=O)c1cc(NC(=O)C2C3CCC(O3)C2C(=O)O)cc(C(=O)OC(C)C)c1` (stereo not given) gave a half-maximal inhibitory concentration (IC50) of over 66.7 µM. Turning to `Cc1nc2c(-c3ccc(F)cc3)c(C)nn2c(C)c1CCC(=O)NC(C)CCc1ccco1` (stereo not given) [3-[3-(4-fluorophenyl)-2,5,7-trimethyl-6-pyrazolo[1,5-a]pyrimidinyl]-N-[4-(2-furanyl)butan-2-yl]propanamide], the 50% inhibitory concentration (IC50) was over 66.7 µM. `COCCCN1C(=O)C(=O)C(C(=O)c2ccccc2)C1c1ccc2c(c1)OCO2` (stereo not given) [(4E)-5-(1,3-benzodioxol-5-yl)-1-(3-methoxypropyl)-4-[oxidanyl(phenyl)methylidene]pyrrolidine-2,3-dione] gave a concentration for half-maximal inhibition (IC50) of over 66.7 µM and an inhibitory constant (Ki) of over 40.3 µM. The molecule `O=C(O)CCCNc1cc(N2CCC3(CC2)OCCO3)c2noc3c2c1C(=O)c1ccccc1-3` [4-{[3-(1,4-dioxa-8-azaspiro[4.5]dec-8-yl)-6-oxo-6H-anthra[1,9-cd]isoxazol-5-yl]amino}butanoic acid] had a concentration for half-maximal inhibition (IC50) of 10.9 µM. In the case of `O=C1CCCC(=O)C1C(C#Cc1ccccc1)C1C(=O)CCCC1=O` [3-hydroxy-2-[1-(2-hydroxy-6-keto-cyclohexen-1-yl)-3-phenyl-prop-2-ynyl]cyclohex-2-en-1-one], the IC50 was over 66.7 µM and the Ki was over 40.3 µM.

Molecule `COCCN1C(=O)C(=O)C(C(=O)c2cccs2)C1c1ccccc1` (stereo not given) [1-(2-methoxyethyl)-4-oxidanyl-2-phenyl-3-thiophen-2-ylcarbonyl-2H-pyrrol-5-one] showed a half-maximal inhibitory concentration (IC50) of over 66.7 µM and a Ki of over 40.3 µM. Regarding `CCOc1ccc(C2C(C(=O)c3cccs3)C(=O)C(=O)N2CCCn2ccnc2)cc1` (stereo not given) [2-(4-ethoxyphenyl)-1-(3-imidazol-1-ylpropyl)-4-oxidanyl-3-thiophen-2-ylcarbonyl-2H-pyrrol-5-one], the IC50 is over 66.7 µM and the inhibition constant (Ki) was over 40.3 µM.

`CC(=O)SCC(=O)N=c1sc2cc(F)ccc2n1C` [MLS000091388] showed an IC50 of over 66.7 µM. Regarding `COc1ccc2c(=O)c(-c3cnn(-c4ccccc4)c3)c(C)oc2c1` [7-methoxy-2-methyl-3-(1-phenyl-1H-pyrazol-4-yl)-4H-chromen-4-one], the 50% inhibitory concentration (IC50) was over 66.7 µM.

`Clc1ccc(Cc2nn3c(-c4ccncc4)nnc3s2)cc1` [6-(4-chlorobenzyl)-3-(4-pyridyl)-[1,2,4]triazolo[3,4-b][1,3,4]thiadiazole] returned a concentration for half-maximal inhibition (IC50) of over 66.7 µM. Consider `CCc1c(C)nc2c(C#N)c(C)[nH]n2c1=O` [SMR000013340], for which the IC50 was over 66.7 µM. `COc1cc(C2C(C(=O)c3ccc4c(c3)CC(C)O4)C(=O)C(=O)N2CCCn2ccnc2)ccc1O` (stereo not given) [(4E)-1-(3-imidazol-1-ylpropyl)-5-(3-methoxy-4-oxidanyl-phenyl)-4-[(2-methyl-2,3-dihydro-1-benzofuran-5-yl)-oxidanyl-methylidene]pyrrolidine-2,3-dione] returned an IC50 of over 66.7 µM and a Ki of over 40.3 µM. With `COc1ccc(NC(=O)C2C(=O)NC3(C)CC2c2ccccc2O3)cc1` (stereo not given) [N-(4-methoxyphenyl)-2-methyl-4-oxo-3,4,5,6-tetrahydro-2H-2,6-methano-1,3-benzoxazocine-5-carboxamide], the concentration for half-maximal inhibition (IC50) was over 66.7 µM. `CCOc1cccc(C(=O)C2C(=O)C(=O)N(Cc3cccnc3)C2c2ccco2)c1` (stereo not given) [(4Z)-4-[(3-ethoxyphenyl)-hydroxymethylidene]-5-(2-furanyl)-1-(3-pyridinylmethyl)pyrrolidine-2,3-dione] yielded a half-inhibitory concentration (IC50) of over 66.7 µM and an inhibitory constant (Ki) of over 40.3 µM. In the case of `Cc1nc2c(C)cccn2c1C(=O)C1C(=O)C(=O)N(CCN2CCOCC2)C1c1cccs1` (stereo not given) [(4E)-4-[(2,8-dimethyl-3-imidazo[1,2-a]pyridinyl)-hydroxymethylidene]-1-[2-(4-morpholinyl)ethyl]-5-thiophen-2-ylpyrrolidine-2,3-dione], the concentration for half-maximal inhibition (IC50) was over 66.7 µM and the inhibition constant Ki is over 40.3 µM.

As for `COc1ccc(-c2cc(C(F)(F)F)nc(N3CCN(Cc4ccccc4)CC3)n2)cc1OC` [2-(4-benzylpiperazin-1-yl)-4-(3,4-dimethoxyphenyl)-6-(trifluoromethyl)pyrimidine], the IC50 was 12.1 µM. `Cc1nc2c(C#N)c(C)[nH]n2c(=O)c1Cc1ccccc1` returned a half-maximal inhibitory concentration (IC50) of over 66.7 µM.

The same assay, now with this note: inactive by the depositor's call.
Consider `CNc1nn(-c2cccc(Cl)c2)nc1N` [2-(3-chlorophenyl)-4-N-methyltriazole-4,5-diamine], for which the 50% inhibitory concentration (IC50) worked out at 18.2 µM.

As for `CCOc1cc(C(=O)NCc2nnc(SCC(=O)OC)n2C)cc(OCC)c1OCC` [2-[[4-methyl-5-[[(3,4,5-triethoxybenzoyl)amino]methyl]-1,2,4-triazol-3-yl]thio]acetic acid methyl ester], the half-inhibitory concentration (IC50) is 18.5 µM. This IC50 and that of the molecule before are within 1.5-fold of each other.
